{"source": "patent US8673843B2", "about": "“NMDA receptors modulators and uses thereof” (Northwestern University, priority 2010, dated 2014)", "biological_target": "NMDA receptor (Rattus norvegicus, UniProt P35439)", "assay": "[3H] MK-801 binding assay", "settings": "50 μM glutamate; for Potency: rat forebrain crude synaptic membranes, [3H]MK-801 5 nM", "description": "Male 2-3 month old rats were decapitated without anesthesia by guillotine, and the brains were rapidly removed (˜90 sec) and whole cortex and hippocampus dissected on an ice cold platform, frozen on dry ice, and stored at −80° C. Samples were homogenized in 20 volumes of ice cold 5 mM Tris-HCl pH 7.4 by Brinkman Polytron and pelleted 48,000×g for 20 min at 4° C., and washed an additional 3 times as described above. Membranes were then resuspended in 5 mM EDTA and 15 mM Tris-HCl pH 7.4 and incubated for 1 hr at 37° C., membranes pelleted at 48,000×g for 20 min at 4° C., snap frozen in liquid nitrogen, and stored at −80° C. On the day of the experiment, membranes were thawed at room temperature and washed an additional 7 times in ice cold 5 mM Tris-HCl (pH 7.4) as described above. After the last wash, membranes were resuspended in assay buffer (5 mM Tris-acetate pH 7.4), and protein content was determined by the BCA assay.\n[^3H] […] Then the tubes were washed three times with assay buffer (5 mM Tris-acetate PH 7.4), and the filters were analyzed by liquid scintillation to calculate the disintegrations per minute (DPM). Zero levels were determined in the absence of any glycine ligand and in the presence of 30 μM 5,7-Dichlorokynurenic acid (5,7-DCKA). Maximal stimulation was measured in the presence of 1 mM glycine. 50 μM glutamate was present in all samples.\nFor each data point (i.e., a single concentration of the test compound), the % maximal [^3H]\nThe efficacy for each compound, expressed as the % increase in [^3H]", "note": "Residues, ends and D or L forms follow the SMILES beside them.", "data": [{"smiles": "C[C@@H](O)[C@H](NC(=O)[C@@H]1CCCN1C(=O)[C@@H]1CCCN1C(=O)[C@@H](N)CO)C(N)=O", "note": "[Compound A, (S)—N-((2S,3R)-1-amino-3-hydroxy-1-oxobutan-2-yl)-1-((S)-1-((S)-2-amino-3-hydroxypropanoyl)pyrrolidine-2-carbonyl)pyrrolidine-2-carboxamide] (H-SPPT-NH2)", "values": [{"measurement": "Potency", "value": 5, "unit": "pM"}]}, {"smiles": "C[C@@H](O)[C@H](N)C(=O)N1CCC[C@H]1C(=O)N1CCCC1(Cc1ccccc1)C(=O)N[C@H](C(N)=O)[C@@H](C)O", "note": "(stereo partly drawn) [E, N-((2S,3R)-1-amino-3-hydroxy-1-oxobutan-2-yl)-1-((S)-1-((2S,3R)-2-amino-3-hydroxybutanoyl)-pyrrolidine-2-carbonyl)-2-benzylpyrrolidine-2-carboxamide]", "values": [{"measurement": "Potency", "value": 0.2, "unit": "pM"}]}, {"smiles": "C[C@@H](O)[C@H](N)C(=O)N1CCC[C@H]1C(=O)N1CCC[C@H]1C(=O)N[C@@H](CO)C(N)=O", "note": "[Compound B, (S)—N—((S)-1-amino-3-hydroxy-1-oxopropan-2-yl)-1-((S)-1-((2S,3R)-2-amino-3-hydroxybutanoyl)pyrrolidine-2-carbonyl)pyrrolidine-2-carboxamide] (H-TPPS-NH2)", "values": [{"measurement": "Efficacy (% Increase in [3H] MK-801 Binding)", "setting": "best-fit top value, relative to 1 mM glycine maximal stimulation", "value": 24, "unit": "%"}, {"measurement": "Potency", "value": 6, "unit": "pM"}]}, {"smiles": "NC(=O)[C@H](CO)NC(=O)[C@@H]1CCCN1C(=O)[C@@H]1CCCN1C(=O)[C@@H](N)CO", "note": "[Compound C, (S)—N—((S)-1-amino-3-hydroxy-1-oxopropan-2-yl)-1-((S)-1-((S)-2-amino-3-hydroxy-propanoyl)-pyrrolidine-2-carbonyl)-pyrrolidine-2-carboxamide] (H-SPPS-NH2)", "values": [{"measurement": "Potency", "value": 16, "unit": "pM"}]}]}
